# Laboratory results from patent US20110015067A1, “Herbicidal Compositions Comprising Pyroxasulfone” (BASF SE, priority 2008, published 2011).
# Read-outs that look alike come from different tables or passages of the source.
# Assays:
# Experiment in all cases: pre-emergence greenhouse test
# Format in all cases: in vivo
# [1] = tested on: SETVI (Setaria viridis); conditions: for observed activity in % destruction: pre-emergence
# Summary of the method: (§1)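 Herbicide A and safener were formulated as 10% by weight suspension concentrates, herbicide B as commercial product, all diluted in water and sprayed onto soil just after sowing. Percent damage compared with untreated controls was recorded 8 and/or 20 DAT.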
# [2] = tested on: COMBE (Commelina benghalensis); conditions: for inhibition at 12.5 g/ha: Commelina benghalensis, use rate 12.5 g ai/ha, read-out: observed % activity; for inhibition at 12.5 g/ha / observed activity in % destruction: pre-emergence
# Summary of the method: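 Pre-emergence spray right after sowing; actives in water, herbicide A/safener as 10% w/w SC, herbicide B/safener as commercial formulations. Hooded until rooted, 20-day test. Damage scored 0 (none) to 100% (complete kill) vs untreated, at 8 and/or 20 DAT.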
# [3] = tested on: ALOMY (Alopecurus myosuroides); conditions: for observed activity in % destruction: pre-emergence
# Summary of the method: as §1
# [4] = tested on: BRAPL (Brachiaria plantaginea); conditions: for observed activity in % destruction: pre-emergence
# Summary of the method: as §1
# [5] = COMBE pre-emergence 6.25 g ai/ha
# [6] = COMBE pre-emergence 12.5 g ai/ha
# [7] = BRAPL pre-emergence 6.25 g ai/ha
# [8] = BRAPL pre-emergence 12.5 g ai/ha
smiles,measurement,setting,value
"Cn1nc(C(F)(F)F)c(CS(=O)(=O)C2=NOC(C)(C)C2)c1OC(F)F [pyroxasulfone, 3-[5-(difluoromethoxy)-1-methyl-3-(trifluoromethyl)pyrazol-4-ylmethylsulfonyl]-4,5-dihydro-5,5-dimethyl-1,2-oxazole]",observed % destruction 8 DAT,[1]; SETVI pre-emergence 50 g ai/ha,90%
same,observed % destruction 20 DAT,[1]; SETVI pre-emergence 50 g ai/ha,100%
same,observed activity in % destruction,"[1]; 6.25 g ai/ha, 8 DAT",30%
same,observed activity in % destruction,"[1]; 6.25 g ai/ha, 20 DAT",75%
same,observed activity in % destruction,"[1]; 12.5 g ai/ha, 8 DAT",70%
same,observed activity in % destruction,"[1]; 12.5 g ai/ha, 20 DAT",95%
same,observed activity in % destruction,"[1]; 50 g ai/ha, 8 DAT",90%
same,observed activity in % destruction,"[1]; 50 g ai/ha, 20 DAT",100%
same,observed % destruction 8 DAT,[2]; [5],40%
same,observed % destruction 20 DAT,[2]; [5],70%
same,observed % destruction 8 DAT,[2]; [6],75%
same,observed % destruction 20 DAT,[2]; [6],98%
same,observed % destruction 8 DAT,[2]; COMBE pre-emergence 25 g ai/ha,95%
same,observed % destruction 20 DAT,[2]; COMBE pre-emergence 25 g ai/ha,100%
same,inhibition at 12.5 g/ha,"[2]; 192 h, 8 DAT",75%
same,inhibition at 12.5 g/ha,"[2]; 480 h, 20 DAT",98%
same,observed activity in % destruction,"[2]; 6.25 g ai/ha, 8 DAT",40%
same,observed activity in % destruction,"[2]; 6.25 g ai/ha, 20 DAT",70%
same,observed activity in % destruction,"[2]; 12.5 g ai/ha, 8 DAT",75%
same,observed activity in % destruction,"[2]; 12.5 g ai/ha, 20 DAT",98%
same,observed activity in % destruction,"[2]; 25 g ai/ha, 8 DAT",95%
same,observed activity in % destruction,"[2]; 25 g ai/ha, 20 DAT",100%
same,observed % destruction 20 DAT,[3]; ALOMY pre-emergence 6.25 g ai/ha,90%
same,observed % destruction 20 DAT,[3]; ALOMY pre-emergence 12.5 g ai/ha,98%
same,observed % destruction 20 DAT,[3]; ALOMY pre-emergence 25 g ai/ha,98%
same,observed % destruction 8 DAT,[3]; ALOMY pre-emergence 50 g ai/ha,85%
same,observed % destruction 20 DAT,[3]; ALOMY pre-emergence 50 g ai/ha,98%
same,observed activity in % destruction,"[3]; 12.5 g ai/ha, 8 DAT",70%
same,observed activity in % destruction,"[3]; 12.5 g ai/ha, 20 DAT",98%
same,observed activity in % destruction,"[3]; 25 g ai/ha, 8 DAT",80%
same,observed activity in % destruction,"[3]; 25 g ai/ha, 20 DAT",98%
same,observed activity in % destruction,"[3]; 50 g ai/ha, 8 DAT",85%
same,observed activity in % destruction,"[3]; 50 g ai/ha, 20 DAT",98%
same,observed % destruction 8 DAT,[4]; [7],30%
same,observed % destruction 20 DAT,[4]; [7],70%
same,observed % destruction 8 DAT,[4]; [8],35%
same,observed % destruction 20 DAT,[4]; [8],80%
same,observed % destruction 8 DAT,[4]; BRAPL pre-emergence 25 g ai/ha,60%
same,observed % destruction 20 DAT,[4]; BRAPL pre-emergence 25 g ai/ha,95%
same,observed % destruction 20 DAT,[4]; BRAPL pre-emergence 50 g ai/ha,98%
same,observed activity in % destruction,"[4]; 12.5 g ai/ha, 8 DAT",35%
same,observed activity in % destruction,"[4]; 12.5 g ai/ha, 20 DAT",80%
same,observed activity in % destruction,"[4]; 25 g ai/ha, 8 DAT",60%
same,observed activity in % destruction,"[4]; 25 g ai/ha, 20 DAT",95%
same,observed activity in % destruction,"[4]; 50 g ai/ha, 8 DAT",70%
same,observed activity in % destruction,"[4]; 50 g ai/ha, 20 DAT",98%
